# Test results: patent US20200102254A1, “BIOFERTILIZER AND METHODS OF MAKING AND USING SAME” (President and Fellows of Harvard College, priority 2017, published 2020)
# Columns and labels:
# [1] = system: glutamine synthetase (GS); experiment: NH3 secretion in the hybrid device after addition of GS inhibitor; assay type: cell-based, X. autotrophicus; settings: 50 μM inhibitor
# Protocol: Eappl is defined as the voltage difference between the working (OER) and counter/reference (HER) electrodes in a two-electrode configuration. After inoculation with X. autotrophicus (initial OD600=0.2), the reactor was purged with the gas mixture at a flow rate between 5 to 20 mL min^−1. These electrochemical cells were stirred at 350 rpm to facilitate mass transport and were immersed in a 30° C. water bath. The electrolyte was sampled every 12 or 24 hr to quantify OD600 and N accumulation. For time points in which […] (GS) inhibitor phosphinothricin (PPT) was added with final concentration of 50 μM, aliquots were sampled prior to inhibitor addition. The reported data are based on at least three biological replicates (n≥3).
# Ntotal was determined from sampled aliquots after persulfate digestion and based on the absorption of oxidized phenol under acidic conditions (Hach Company 2672245). Nsoluble was determined similarly as Ntotal, except that the supernatants after 10,000 rpm centrifugation were digested in persulfate and subsequently analyzed. NH3 was also determined from the supernatants after centrifugation, but based on the salicylate method that is selective to ammonia (Hach Company TNT830). […] For each category of nitrogen content, the nitrogen concentrations were determined by comparing the solution absorbance with those in standard curves. When PPT was added to induce NH3 secretion, the measured nitrogen concentrations presented in FIG. 5B and Table 3 was subtracted from the nitrogen in PPT (2 nitrogen atoms per each PPT molecule for Ntotal, and 1 nitrogen atom per each PPT for NH3). The PPT nitrogen content was also subtracted when calculating ηelec, NRR in Table 1.
# [2] = target: nitrogenase; settings: competitive inhibition of nitrogenase; cited from earlier work
# [3] = system: X. autotrophicus; settings: read-out: half maximum inhibitory concentration (IC50)
compound,measurement,setting,value
"CP(=O)(O)CC[C@H](N)C(=O)O [PPT, phosphinothricin]",biomass of X. autotrophicus after inhibitor addition,[1],stagnated
same,concentration of NNH3 at end of experiment,[1]; Eappl=3.0 V,~0.8 mM
same,accumulated Ntotal,"[1]; Eappl=3.0 V, n=3",47 ± 3 mg/L
same,concentration of N in free NH3 in the solution (NNH3) at end of experiment,"[1]; Eappl=3.0 V, n=3",11 ± 2 mg/L
same,biomass of X. autotrophicus after inhibitor addition,[1]; listed as phosphinothricin,slows
"[HH] [H2, hydrogen]",inhibition constant Ki(D2),[2],~11 kPa
[Co+2] [Co2+],IC50,[3],~50 µM
